What was measured:
[1] = biological target: Focal adhesion kinase 1 (Homo sapiens) (UniProt Q05397); experiment: Inhibition of FAK (unknown origin) at 10 uM after 120 mins P33 radiolabeled kinase activity assay
[2] = biological target: Fibroblast growth factor receptor 2 (Homo sapiens) (UniProt P21802); experiment: Inhibition of FGFR2 (unknown origin) at 10 uM after 120 mins P33 radiolabeled kinase activity assay
[3] = biological target: Homeodomain-interacting protein kinase 1 (Homo sapiens) (UniProt Q86Z02); experiment: Inhibition of HIPK1 (unknown origin) at 10 uM after 120 mins P33 radiolabeled kinase activity assay
[4] = biological target: Serine/threonine-protein kinase PLK2 (Homo sapiens) (UniProt Q9NYY3); experiment: Inhibition of PLK2 (unknown origin) at 10 uM after 120 mins P33 radiolabeled kinase activity assay
[5] = biological target: Proto-oncogene tyrosine-protein kinase ROS (Homo sapiens) (UniProt P08922); experiment: Inhibition of ROS (unknown origin) at 10 uM after 120 mins P33 radiolabeled kinase activity assay
[6] = biological target: T1, Myosin-IIIb (Homo sapiens) (UniProt Q8WXR4); experiment: Inhibition of MYO3b (unknown origin) at 10 uM after 120 mins P33 radiolabeled kinase activity assay
T1 sequence (whole entry): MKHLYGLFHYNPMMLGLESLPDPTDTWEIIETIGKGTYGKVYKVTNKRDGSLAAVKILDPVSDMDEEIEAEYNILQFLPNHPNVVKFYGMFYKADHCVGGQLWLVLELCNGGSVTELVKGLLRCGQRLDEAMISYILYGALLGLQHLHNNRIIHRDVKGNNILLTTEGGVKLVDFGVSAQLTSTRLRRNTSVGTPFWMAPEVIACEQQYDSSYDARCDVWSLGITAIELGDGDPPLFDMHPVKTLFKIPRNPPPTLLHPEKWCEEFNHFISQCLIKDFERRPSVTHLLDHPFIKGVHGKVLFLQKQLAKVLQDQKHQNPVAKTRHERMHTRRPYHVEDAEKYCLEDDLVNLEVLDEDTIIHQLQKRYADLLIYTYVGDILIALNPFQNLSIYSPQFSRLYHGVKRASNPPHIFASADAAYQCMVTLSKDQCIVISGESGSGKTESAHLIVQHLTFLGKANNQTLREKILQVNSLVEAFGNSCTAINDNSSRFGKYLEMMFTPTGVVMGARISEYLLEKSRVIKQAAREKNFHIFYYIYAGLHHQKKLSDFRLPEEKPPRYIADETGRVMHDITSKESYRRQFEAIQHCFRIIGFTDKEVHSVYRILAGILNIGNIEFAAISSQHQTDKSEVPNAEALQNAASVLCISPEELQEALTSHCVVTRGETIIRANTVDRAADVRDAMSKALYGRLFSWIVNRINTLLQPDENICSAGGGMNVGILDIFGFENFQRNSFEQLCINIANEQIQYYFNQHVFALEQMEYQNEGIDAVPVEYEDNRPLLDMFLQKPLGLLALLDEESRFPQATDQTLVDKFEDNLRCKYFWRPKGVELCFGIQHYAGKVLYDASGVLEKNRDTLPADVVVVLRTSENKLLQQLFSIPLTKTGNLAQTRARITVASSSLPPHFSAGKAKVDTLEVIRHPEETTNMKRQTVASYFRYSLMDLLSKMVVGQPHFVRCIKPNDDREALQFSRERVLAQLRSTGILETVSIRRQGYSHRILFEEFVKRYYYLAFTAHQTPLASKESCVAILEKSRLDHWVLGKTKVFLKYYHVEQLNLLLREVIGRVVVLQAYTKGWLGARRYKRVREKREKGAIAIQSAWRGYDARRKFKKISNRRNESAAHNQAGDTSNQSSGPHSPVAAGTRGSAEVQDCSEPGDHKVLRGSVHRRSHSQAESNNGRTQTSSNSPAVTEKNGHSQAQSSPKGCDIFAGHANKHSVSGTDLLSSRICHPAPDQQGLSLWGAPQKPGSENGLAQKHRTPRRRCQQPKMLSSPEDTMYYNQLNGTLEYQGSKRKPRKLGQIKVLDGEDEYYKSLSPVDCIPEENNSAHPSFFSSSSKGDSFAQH

[7] = biological target: T2, Serine/threonine-protein kinase Nek1 (Homo sapiens) (UniProt Q96PY6); experiment: Inhibition of NEK1 (unknown origin) at 10 uM after 120 mins P33 radiolabeled kinase activity assay
T2 sequence (whole entry): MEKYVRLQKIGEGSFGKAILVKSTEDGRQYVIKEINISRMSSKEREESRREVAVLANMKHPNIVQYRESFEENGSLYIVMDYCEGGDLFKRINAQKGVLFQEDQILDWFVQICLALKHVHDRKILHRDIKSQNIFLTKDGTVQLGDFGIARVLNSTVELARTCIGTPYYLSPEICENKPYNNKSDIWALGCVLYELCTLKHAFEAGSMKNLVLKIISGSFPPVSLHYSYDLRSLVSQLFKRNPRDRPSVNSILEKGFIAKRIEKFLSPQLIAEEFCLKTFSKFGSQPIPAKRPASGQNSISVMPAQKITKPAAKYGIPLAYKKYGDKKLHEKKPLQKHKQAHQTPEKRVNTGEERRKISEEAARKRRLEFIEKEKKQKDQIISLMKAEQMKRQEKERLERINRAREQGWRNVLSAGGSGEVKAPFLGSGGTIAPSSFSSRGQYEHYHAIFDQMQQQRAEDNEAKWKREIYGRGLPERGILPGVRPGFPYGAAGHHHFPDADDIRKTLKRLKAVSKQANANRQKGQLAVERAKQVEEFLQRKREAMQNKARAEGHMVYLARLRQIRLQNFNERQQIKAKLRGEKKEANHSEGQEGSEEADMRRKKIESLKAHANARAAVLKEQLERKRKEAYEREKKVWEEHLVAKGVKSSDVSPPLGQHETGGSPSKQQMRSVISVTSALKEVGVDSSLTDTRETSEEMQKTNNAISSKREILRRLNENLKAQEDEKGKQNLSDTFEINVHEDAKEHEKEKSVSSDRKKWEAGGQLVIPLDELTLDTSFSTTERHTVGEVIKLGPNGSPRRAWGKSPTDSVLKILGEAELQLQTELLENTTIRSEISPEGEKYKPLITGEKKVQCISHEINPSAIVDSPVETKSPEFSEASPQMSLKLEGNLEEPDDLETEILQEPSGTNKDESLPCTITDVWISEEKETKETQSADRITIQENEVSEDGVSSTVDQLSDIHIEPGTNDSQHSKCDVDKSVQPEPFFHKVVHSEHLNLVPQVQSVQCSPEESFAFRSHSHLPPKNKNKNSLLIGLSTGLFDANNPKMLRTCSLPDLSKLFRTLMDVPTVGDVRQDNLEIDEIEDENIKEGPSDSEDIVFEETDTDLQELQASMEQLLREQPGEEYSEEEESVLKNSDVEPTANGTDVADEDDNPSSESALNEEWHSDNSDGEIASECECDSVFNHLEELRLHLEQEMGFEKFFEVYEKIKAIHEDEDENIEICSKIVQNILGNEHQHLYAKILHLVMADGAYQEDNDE

[8] = biological target: Calcium/calmodulin-dependent protein kinase type II subunit delta (Homo sapiens) (UniProt Q13557); experiment: Inhibition of CAMK2delta (unknown origin) at 10 uM after 120 mins P33 radiolabeled kinase activity assay
Chain of Calcium/calmodulin-dependent protein kinase type II subunit delta (Homo sapiens) (Q13557 whole entry): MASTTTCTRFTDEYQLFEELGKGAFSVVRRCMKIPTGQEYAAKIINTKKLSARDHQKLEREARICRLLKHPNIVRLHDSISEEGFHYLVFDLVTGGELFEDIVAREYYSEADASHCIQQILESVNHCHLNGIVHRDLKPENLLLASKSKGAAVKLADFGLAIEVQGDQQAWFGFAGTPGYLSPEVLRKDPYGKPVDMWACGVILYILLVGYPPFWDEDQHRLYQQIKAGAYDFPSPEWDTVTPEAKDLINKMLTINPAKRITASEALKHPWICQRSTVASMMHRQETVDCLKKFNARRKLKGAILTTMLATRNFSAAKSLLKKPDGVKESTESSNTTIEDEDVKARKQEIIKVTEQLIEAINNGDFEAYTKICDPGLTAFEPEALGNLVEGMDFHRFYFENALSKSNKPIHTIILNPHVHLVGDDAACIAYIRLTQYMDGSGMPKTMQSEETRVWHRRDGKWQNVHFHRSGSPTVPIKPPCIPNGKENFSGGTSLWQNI

Chain of Proto-oncogene tyrosine-protein kinase ROS (Homo sapiens) (P08922 whole entry): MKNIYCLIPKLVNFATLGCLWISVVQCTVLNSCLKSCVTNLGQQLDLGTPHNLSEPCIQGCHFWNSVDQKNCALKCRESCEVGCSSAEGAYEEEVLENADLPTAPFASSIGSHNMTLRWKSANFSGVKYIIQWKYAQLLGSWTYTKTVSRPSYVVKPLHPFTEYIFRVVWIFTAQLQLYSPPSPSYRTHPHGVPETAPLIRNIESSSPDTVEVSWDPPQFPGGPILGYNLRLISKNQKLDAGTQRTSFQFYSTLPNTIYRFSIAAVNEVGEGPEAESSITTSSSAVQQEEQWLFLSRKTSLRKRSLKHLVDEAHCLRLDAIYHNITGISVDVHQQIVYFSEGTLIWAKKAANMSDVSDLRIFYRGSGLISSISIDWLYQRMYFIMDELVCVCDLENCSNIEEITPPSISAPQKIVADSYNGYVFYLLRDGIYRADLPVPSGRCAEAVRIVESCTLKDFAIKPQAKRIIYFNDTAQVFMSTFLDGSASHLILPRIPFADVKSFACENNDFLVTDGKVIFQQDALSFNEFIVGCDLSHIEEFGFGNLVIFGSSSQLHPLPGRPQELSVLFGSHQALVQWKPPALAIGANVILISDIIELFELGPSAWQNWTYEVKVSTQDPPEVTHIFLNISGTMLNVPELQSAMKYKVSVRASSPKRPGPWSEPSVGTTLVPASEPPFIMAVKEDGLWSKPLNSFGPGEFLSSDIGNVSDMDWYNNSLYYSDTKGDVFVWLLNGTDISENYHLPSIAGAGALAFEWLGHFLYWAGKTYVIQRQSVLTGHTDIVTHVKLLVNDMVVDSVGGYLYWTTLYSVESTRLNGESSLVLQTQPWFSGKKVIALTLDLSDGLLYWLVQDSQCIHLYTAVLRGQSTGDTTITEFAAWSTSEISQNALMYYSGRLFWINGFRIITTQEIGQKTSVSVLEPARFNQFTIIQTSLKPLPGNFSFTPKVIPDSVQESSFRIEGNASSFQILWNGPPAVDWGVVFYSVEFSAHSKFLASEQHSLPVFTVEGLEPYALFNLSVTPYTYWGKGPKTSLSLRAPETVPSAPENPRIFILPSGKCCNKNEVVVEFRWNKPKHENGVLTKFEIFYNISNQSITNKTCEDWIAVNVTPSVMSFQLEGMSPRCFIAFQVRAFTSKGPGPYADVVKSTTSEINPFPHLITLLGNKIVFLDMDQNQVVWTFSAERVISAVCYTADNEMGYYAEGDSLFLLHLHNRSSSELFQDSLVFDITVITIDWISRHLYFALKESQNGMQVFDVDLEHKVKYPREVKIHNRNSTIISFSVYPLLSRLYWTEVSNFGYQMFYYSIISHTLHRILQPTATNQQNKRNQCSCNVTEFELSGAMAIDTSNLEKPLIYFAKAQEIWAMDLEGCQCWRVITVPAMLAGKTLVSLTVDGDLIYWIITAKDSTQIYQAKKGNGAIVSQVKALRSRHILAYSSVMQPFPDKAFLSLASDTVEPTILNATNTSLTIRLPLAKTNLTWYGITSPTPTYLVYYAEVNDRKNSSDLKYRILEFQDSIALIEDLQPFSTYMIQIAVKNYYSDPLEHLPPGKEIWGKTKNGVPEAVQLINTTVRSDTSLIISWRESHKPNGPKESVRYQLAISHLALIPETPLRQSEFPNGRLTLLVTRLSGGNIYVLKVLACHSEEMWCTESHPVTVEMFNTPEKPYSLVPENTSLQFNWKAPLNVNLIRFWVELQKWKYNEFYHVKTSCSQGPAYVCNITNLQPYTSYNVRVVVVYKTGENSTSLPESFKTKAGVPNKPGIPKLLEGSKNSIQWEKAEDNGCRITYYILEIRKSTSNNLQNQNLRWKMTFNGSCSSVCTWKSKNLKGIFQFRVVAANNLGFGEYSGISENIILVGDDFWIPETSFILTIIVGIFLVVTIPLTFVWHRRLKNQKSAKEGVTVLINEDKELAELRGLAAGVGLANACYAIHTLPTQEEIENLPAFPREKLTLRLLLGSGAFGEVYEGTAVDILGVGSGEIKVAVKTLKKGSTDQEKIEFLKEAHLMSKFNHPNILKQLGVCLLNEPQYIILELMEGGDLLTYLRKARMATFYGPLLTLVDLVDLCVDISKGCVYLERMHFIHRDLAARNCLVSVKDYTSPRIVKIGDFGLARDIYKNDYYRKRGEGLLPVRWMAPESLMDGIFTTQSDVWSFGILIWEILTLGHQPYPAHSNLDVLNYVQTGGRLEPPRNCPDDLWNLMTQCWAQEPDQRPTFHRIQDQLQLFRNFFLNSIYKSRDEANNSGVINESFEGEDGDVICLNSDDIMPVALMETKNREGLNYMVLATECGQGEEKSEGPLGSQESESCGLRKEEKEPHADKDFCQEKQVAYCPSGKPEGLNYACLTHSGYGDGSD
Chain of Serine/threonine-protein kinase PLK2 (Homo sapiens) (Q9NYY3 whole entry, looked up): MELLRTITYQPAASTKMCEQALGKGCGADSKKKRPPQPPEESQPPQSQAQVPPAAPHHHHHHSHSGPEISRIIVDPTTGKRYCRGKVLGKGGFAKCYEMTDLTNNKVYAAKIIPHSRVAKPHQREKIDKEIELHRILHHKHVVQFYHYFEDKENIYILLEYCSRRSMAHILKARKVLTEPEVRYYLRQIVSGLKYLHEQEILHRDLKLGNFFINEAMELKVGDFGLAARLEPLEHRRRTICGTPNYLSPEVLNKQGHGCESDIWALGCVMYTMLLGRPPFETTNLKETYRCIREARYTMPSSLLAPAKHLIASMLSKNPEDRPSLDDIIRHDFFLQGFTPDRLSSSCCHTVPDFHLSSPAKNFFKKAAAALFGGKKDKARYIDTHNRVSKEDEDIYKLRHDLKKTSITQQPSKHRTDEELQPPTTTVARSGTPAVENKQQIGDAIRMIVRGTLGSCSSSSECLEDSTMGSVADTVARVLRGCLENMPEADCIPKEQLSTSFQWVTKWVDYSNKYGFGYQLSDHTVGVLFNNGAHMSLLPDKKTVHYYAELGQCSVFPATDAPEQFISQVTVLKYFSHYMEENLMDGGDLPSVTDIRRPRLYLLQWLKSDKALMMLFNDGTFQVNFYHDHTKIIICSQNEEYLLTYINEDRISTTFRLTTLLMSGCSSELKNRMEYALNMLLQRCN
Chain of Homeodomain-interacting protein kinase 1 (Homo sapiens) (Q86Z02 whole entry, looked up): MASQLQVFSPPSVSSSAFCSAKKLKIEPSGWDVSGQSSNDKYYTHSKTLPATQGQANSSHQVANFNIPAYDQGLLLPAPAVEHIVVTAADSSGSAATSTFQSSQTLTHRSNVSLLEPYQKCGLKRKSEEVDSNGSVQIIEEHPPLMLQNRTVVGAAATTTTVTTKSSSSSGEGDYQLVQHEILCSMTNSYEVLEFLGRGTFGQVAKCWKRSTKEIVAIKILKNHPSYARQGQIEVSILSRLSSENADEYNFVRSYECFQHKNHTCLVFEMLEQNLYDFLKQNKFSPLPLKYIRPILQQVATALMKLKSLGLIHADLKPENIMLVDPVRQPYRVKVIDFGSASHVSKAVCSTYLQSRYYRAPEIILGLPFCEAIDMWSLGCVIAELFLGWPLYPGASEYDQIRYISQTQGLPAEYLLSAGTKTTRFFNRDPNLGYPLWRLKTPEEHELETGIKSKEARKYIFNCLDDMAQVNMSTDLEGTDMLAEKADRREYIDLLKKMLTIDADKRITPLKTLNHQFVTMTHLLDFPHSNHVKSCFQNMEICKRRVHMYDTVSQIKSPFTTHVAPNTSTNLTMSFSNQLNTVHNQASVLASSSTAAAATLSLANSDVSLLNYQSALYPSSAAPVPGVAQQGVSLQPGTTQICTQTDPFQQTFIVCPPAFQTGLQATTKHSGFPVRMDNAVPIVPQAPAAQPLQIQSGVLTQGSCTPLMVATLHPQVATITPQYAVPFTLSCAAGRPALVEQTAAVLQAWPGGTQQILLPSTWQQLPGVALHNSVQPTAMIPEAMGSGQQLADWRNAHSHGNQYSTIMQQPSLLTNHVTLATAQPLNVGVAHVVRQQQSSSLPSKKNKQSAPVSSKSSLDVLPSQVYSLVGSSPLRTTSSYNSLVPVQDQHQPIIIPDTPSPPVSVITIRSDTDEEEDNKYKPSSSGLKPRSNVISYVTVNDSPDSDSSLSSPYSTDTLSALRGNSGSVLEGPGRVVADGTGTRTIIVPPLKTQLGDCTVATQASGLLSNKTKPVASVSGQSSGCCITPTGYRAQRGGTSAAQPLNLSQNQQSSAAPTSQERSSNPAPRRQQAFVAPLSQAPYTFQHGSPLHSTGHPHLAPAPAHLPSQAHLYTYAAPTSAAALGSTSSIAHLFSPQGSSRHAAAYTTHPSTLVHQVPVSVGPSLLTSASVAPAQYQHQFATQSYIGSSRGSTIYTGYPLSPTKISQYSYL

In the case of `CS(=O)(=O)c1cccc(Nc2nccc(-c3sc(N4CCOCC4)nc3-c3cccc(NS(=O)(=O)c4c(F)cccc4F)c3)n2)c1`, the inhibition [1] is reported as 15%, the inhibition [2] is reported as 64.4% and the inhibition [3] is reported as 81.1%. For the same molecule, the inhibition [4] was 7.04%, the inhibition [5] was 63.8% and the inhibition [6] was 71.7%. It also gave an inhibition [7] of 15.4% and an inhibition [8] of 7.04%.

Work on `COCCNC(=O)c1ccc2c(c1)nc(-c1cnc(-c3ccc(Cl)cc3)[nH]1)n2CCOC` yielded an inhibition [1] of 0.5%, an inhibition [2] of 4.14% and an inhibition [3] of -8.42%. It also gave an inhibition [4] of 1.52%, an inhibition [5] of 27.9% and an inhibition [6] of 2.38%. The inhibition [7] was 2.5% and the inhibition [8] was -0.09%.

Molecule `CC(C)(C)c1cc(NC(=O)Nc2ccc(Oc3ccncc3)cc2)no1` has an inhibition [1] of 11.7%, an inhibition [2] of 79.4% and an inhibition [3] of 8.52%. It also gave an inhibition [4] of 2.47%, an inhibition [5] of 88.7% and an inhibition [6] of 92.5%. The inhibition [7] was 12.5% and the inhibition [8] was 3.15%.
